Data from patent publication US20200179392A1, “Idelalisib for Treating Proliferative Vitreoretinopathy and Abnormal Intraocular Neovascularization” (priority 2016, published 2020).

Experiments:
activation of Akt = experiment: VEGF-induced activation of Akt; assay type: cell-based
HRECs [1] = experiment: VEGF-induced wound healing (migration) assay in HRECs; assay type: cell-based, human; details: VEGF 20 ng/ml, idelalisib 5 μM, 18 hours
Description: A wound healing assay was performed as previously described^62 with minor modifications. Once cells reached 90% confluence in 48-well plates, they were starved for growth factors for 7 hours. A wound was created by scraping the cell monolayer with a sterile pipette tip (200 μl). The cells were washed twice to remove detached cells and then treated with VEGF (20 ng/ml) or VEGF plus idelalisib (5 μM). The wound was photographed at 18 hours post wounding with an EVOS FL Auto microscope (Thermo Scientific) as shown in 8B from three independent experiments^61.

[2] = system: angiogenesis (neovascularization) in retina; experiment: Mouse model of oxygen-induced retinopathy (OIR); assay type: in vivo; details: P12 mice, intravitreal 1 μl of 50 μM, retinas IB4 stained on P17
Description: FIGS. 11A-B. Idelalisib inhibits angiogenesis in a mouse model of oxygen-induced retinopathy (OIR). Litters of P12 mice that had been exposed to 75% oxygen for five days were injected intravitreally with 1 μl ilidelalisib (50 μM) or its vehicle (DMSO). A, On P17, whole-mount-retinas were stained with IB4. B, Analysis of neovascularization (NV) areas from the IB4 stained retinas (n=6). The bar graph data are mean±SD of three retinas. “*” indicates significant difference using an unpaired t test. p<0.05.
C57BL/6J litters on postnatal day (P) 7 were exposed to 75% oxygen until P12 in the oxygen chamber (Biospherix). Oxygen concentration was monitored daily using an oxygen sensor (Advanced Instruments, GPR-20F)^58, 59. On P12, the pups were anesthetized by intraperitoneal injection of 50 mg/kg ketamine hydrochloride and 10 mg/kg xylazine. During intravitreal injections, eyelids of P12 pups were separated by incision. Pupils were dilated using a drop of 1% tropicamide and the eyes were treated with topical proparacaine anesthesia. Intravitreous injections were performed under a microsurgical microscope using glass pipettes with a diameter of approximately 150 μm at the tip after the eye were punctured at the upper nasal limbus using a BD insulin syringe with the BD ultra-fine needle. One μl of idelalisib or DMSO was injected. […]

HRECs [3] = experiment: VEGF-induced tube formation assay in HRECs; assay type: cell-based, human; details: idelalisib 5 μM
Description: A tube formation assay was performed as previously described^63. A collagen gel mixture was added to a 96-well plate (70 μl/well), which was then incubated for about 60 minutes at 37° C. to let the collagen gel polymerize. After polymerization, 4.0×10^4 HRECs were seeded in each well with their cultured medium maintained at a 37° C. incubator. This day was considered day 1. On day 2, the medium was removed and 150 μl of the gel mixture was added to each well supplemented with VEGF, or VEGF plus idelalisib (5 μM). On days 3, three different fields per well were randomly chosen and photographed using the EVOS FL Auto microscope. The results in FIG. 10B are representative of three independent experiments^61, 64, 65. Each bar graph indicates mean±standard deviation of three independent experiments. “*” denotes significant difference between the two compared groups. P<0.05 using an unpaired t-test.

activation of Erk = experiment: Western blot of vitreous-induced Erk activation in RPEM cells; assay type: cell-based, human; details: idelalisib 10.0 μM (selective dose for PI3Kδ)
Description: 1B. After growth factor-deprivation, the RPEM cells were pretreated with idelalisib at indicated concentrations, or its vehicle for 30 minutes, and then treated with normal rabbit vitreous diluted (1:2) in DMEM (RV), V: vehicle (0.1% dimethyl sulfoxide) or PDGF-B (10 ng/ml). After the treatment for 30 minutes at 37° C., their lysates were subjected to a western blot analysis using the indicated antibodies. This is representative of three independent experiments. Cells grown to 90% confluence in wells of 24-well plates were serum starved for 24 hours, and then treated with appropriated agents. After two washes with ice-cold phosphate buffered saline (PBS), the cells were lysed in 1× sample buffer diluted with protein extraction buffer (10 mM Tris-HCl, pH 7.4; 5 mM […] (EDTA), 50 mM NaCl, 50 mM NaF, 1% Triton X-100, 20 μg/ml aprotinin, 2 mM Na3VO4, 1 mM phenylmethylsulfonyl fluoride] from 5× sample buffer [25 mM EDTA, 10% sodium dodecyl sulfate (SDS), 500 mM dithiothreitol (DTT), 50% sucrose, 500 mM Tris.HCl (pH=6.8), 0.5% bromophenol blue). The samples were boiled for 5 minutes and then centrifuged for 5 minutes at 13,000×g, 4° C. […] Signal intensity was determined by densitometry using NIH imageJ software^24, 44, 50.

RPEM cells = experiment: Collagen contraction assay, RPEM cells with vitreous; assay type: cell-based, human; details: idelalisib 5 μM, 48 hours
Description: 3D. The RPEM cells were re-suspended in 1.5 mg/ml of neutralized collagen I at a density of 1×10^6 cells/ml and seeded into wells of a 24-well plate. The solidified gels were overlaid with either DMEM/F12 alone (-), or RV supplemented with idelalisib (5 μM) or its vehicle as indicated. After 48 hours the gel diameter was measured and the gel area were calculated. A photograph of a representative experiment is shown at the bottom of the bar graphs. The mean±standard deviation (SD) of three independent experiments is shown; * denotes […]<0.05 using an unpaired t-test. RPEM cells were re-suspended in 1.5 mg/ml of neutralized collagen […], Fremont, Calif.) (pH 7.2) at ice at a density 1×10^6 cells/ml^24, 54. The mixture was transferred into wells of 24-well plates that had been preincubated overnight with 5 mg/ml bovine serum albumin/PBS. After the collagen had polymerized at 37° C. for 90 minutes, 0.5 ml DMEM/F12 or RV (1:2 dilution in DMEM/F12) with or without idelalisib (5 μM) was added. On day 3, the gel diameter was measured and the gel area was calculated using a formula 3.14×r^2, where r is the radius of the gel. At least three independent experiments were performed^24, 55.

CC[C@H](Nc1ncnc2[nH]cnc12)c1nc2cccc(F)c2c(=O)n1-c1ccccc1 [idelalisib]
effect on VEGF-induced activation of Akt (activation of Akt): able to block | effect on VEGF-stimulated migration of HRECs (HRECs [1]): completely blocked | effect on angiogenesis in oxygen-induced retinopathy [2]: abrogated | effect on VEGF-stimulated tube formation of HRECs (HRECs [3]): completely blocked | inhibition of vitreous-induced activation of Erk (activation of Erk): neither inhibited | effect on vitreous-induced collagen contraction of RPEM cells (RPEM cells): completely blocked
